Laboratory results from patent US11739064B2, “HDAC inhibitors and therapeutic methods using the same” (THE BOARD OF TRUSTEES OF THE UNIVERSITY OF ILLINOIS, priority 2015, dated 2023).

Tests used:
HDAC2 = HDAC2 (Homo sapiens, UniProt Q92769); assay: In vitro HDAC inhibition assay, HDAC2; assay type: biochemical
HDAC10 = target: T1, HDAC10 (Homo sapiens, UniProt Q969S8); assay: In vitro HDAC inhibition assay, HDAC10; assay type: biochemical
T1 sequence (Q969S8 1-669): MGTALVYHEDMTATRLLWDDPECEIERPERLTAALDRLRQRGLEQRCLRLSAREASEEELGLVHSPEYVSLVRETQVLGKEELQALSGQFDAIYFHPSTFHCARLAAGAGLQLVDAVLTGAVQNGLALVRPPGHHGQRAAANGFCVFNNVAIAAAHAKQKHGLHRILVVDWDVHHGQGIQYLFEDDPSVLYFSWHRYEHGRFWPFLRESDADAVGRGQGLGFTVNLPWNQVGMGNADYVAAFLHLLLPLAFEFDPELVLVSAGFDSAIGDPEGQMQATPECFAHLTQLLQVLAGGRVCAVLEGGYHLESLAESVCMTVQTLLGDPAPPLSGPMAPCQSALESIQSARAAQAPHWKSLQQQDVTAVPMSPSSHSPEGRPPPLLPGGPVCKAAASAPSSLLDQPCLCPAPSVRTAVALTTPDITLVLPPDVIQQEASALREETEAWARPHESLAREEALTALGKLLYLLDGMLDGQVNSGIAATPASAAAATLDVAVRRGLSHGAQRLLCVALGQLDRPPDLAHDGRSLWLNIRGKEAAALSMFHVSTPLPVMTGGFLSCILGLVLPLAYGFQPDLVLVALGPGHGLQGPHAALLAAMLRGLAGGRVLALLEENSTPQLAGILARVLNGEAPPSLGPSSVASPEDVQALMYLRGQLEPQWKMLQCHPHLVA

HDAC4 = HDAC4 (Homo sapiens, UniProt P56524); assay: HDAC isoform inhibition, HDAC4; assay type: biochemical
HDAC8 = target: T2, HDAC8 (Homo sapiens, UniProt Q9BY41); assay: HDAC isoform inhibition, HDAC8; assay type: biochemical
T2 sequence (Q9BY41 1-377): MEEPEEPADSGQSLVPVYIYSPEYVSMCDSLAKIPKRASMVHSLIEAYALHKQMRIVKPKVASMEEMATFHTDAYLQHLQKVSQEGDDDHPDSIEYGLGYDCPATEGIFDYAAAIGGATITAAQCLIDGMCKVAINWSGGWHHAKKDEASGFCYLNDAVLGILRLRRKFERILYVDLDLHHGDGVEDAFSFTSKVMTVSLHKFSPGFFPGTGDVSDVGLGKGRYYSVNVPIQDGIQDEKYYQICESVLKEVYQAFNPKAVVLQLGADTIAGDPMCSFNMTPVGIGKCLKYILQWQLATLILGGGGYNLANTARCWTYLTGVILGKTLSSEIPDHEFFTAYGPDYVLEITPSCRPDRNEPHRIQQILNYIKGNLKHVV

L3.6pl = assay: In vitro growth inhibition (GI), MTS cell proliferation assay (Table 5), L3.6pl; assay type: cell-based; conditions: Homo sapiens, 72 hours post-treatment
PANC1 cells = assay: Scratch-wound cell migration assay; assay type: cell-based; parameters: key to Inhibition of cell migration, 24 h / Inhibition of cell migration, 48 h: Level of inhibition (high to low): +++, ++ or +; Level of inhibition (high to low): +++, ++ or +; Level of inhibition (high to low): +++, ++ or +; no inhibition: −
Experimental: FIG. 2 contains photographs of PANC1 cells treated with present compounds 9 and 6 taken 24 and 48 hours (post wounding) after a scratch was made through a confluent layer of cells; and
PANC1 Cell migration and effect on T and NK Cells. The effect of HDAC6 inhibition on cell migration and cellular cytotoxicity was evaluated. […] Thus, these HDAC6-selective inhibitors could function well to block metastasis. However, in contrast to the effect observed on cell migration, none of the compounds tested affected CD8+ T cell or natural killer (NK) cell-mediated cytotoxicity, despite the ability of the compounds to substantially increase the levels of acetyl-tubulin in these cell lines.

Chain of HDAC2 (Q92769 whole entry): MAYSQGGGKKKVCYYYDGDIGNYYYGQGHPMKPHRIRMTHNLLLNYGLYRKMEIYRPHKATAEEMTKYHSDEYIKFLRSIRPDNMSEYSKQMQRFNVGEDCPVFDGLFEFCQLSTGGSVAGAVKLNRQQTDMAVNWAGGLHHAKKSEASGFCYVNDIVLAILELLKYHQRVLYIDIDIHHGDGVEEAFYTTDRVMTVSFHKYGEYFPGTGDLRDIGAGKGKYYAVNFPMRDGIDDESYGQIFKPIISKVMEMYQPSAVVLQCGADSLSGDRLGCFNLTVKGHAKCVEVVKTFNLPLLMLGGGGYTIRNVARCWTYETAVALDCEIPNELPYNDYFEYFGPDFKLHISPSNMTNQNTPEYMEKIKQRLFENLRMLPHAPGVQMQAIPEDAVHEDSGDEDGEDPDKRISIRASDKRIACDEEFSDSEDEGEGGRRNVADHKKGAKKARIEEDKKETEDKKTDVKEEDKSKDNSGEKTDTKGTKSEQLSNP
Chain of HDAC4 (P56524 whole entry, canonical isoform): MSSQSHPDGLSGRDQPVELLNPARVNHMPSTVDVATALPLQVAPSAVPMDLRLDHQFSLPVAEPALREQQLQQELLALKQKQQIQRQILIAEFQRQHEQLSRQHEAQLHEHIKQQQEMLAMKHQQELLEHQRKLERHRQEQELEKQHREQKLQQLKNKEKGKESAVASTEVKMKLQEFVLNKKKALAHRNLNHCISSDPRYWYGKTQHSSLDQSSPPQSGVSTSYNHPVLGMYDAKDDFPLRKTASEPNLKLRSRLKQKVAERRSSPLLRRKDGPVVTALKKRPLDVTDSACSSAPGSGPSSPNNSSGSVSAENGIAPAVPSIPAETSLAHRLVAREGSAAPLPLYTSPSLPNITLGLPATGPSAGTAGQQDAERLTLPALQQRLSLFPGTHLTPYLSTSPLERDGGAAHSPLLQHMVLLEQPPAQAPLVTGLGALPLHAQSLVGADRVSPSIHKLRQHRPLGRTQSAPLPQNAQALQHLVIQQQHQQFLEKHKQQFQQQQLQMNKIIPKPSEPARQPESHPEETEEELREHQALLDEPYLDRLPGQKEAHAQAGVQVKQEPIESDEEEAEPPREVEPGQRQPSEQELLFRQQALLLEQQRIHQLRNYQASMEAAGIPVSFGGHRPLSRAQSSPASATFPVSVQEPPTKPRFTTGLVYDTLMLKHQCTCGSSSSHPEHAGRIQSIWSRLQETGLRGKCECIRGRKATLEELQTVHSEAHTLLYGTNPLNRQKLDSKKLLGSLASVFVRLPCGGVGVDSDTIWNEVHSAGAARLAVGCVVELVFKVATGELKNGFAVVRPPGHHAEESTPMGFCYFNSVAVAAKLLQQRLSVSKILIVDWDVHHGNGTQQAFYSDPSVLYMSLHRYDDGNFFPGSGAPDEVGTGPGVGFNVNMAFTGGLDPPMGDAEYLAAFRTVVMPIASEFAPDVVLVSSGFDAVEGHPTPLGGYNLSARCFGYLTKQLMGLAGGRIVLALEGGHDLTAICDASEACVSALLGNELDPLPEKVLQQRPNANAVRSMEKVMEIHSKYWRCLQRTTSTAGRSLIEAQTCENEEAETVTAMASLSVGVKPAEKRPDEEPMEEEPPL

- Selectivity for HDAC6 (fold) over HDAC2 (HDAC2): 20500 fold
- IC50 (HDAC2; NI = No inhibition at a concentration of 50 pM (footnote b), read-out: HDAC isoform IC50, HDAC2): 123 µM
- Selectivity for HDAC6 (fold) over HDAC10 (HDAC10): >16000 fold
- IC50 (HDAC10; NI = No inhibition at a concentration of 50 pM (footnote b), read-out: HDAC isoform IC50, HDAC10): > 100 µM
- IC50 (HDAC4): 130 µM
- Selectivity for HDAC6 (fold) over HDAC4 (HDAC4): 21600 fold
- IC50 (HDAC8): 810 nM
- Selectivity for HDAC6 (fold) over HDAC8 (HDAC8): 135 fold
Compound: CC(C)(C)OC(=O)Nc1ccc(-c2cc(C(=O)NCCc3cc(C(=O)NO)no3)no2)cc1 [Compound 6, (4-{3-[2-(3-Hydroxycarbamoyl-isoxazol-5-yl)-ethylcarbamoyl]-isoxazol-5-yl}-phenyl)-carbamic acid tert-butyl ester]
- GI50 (L3.6pl): > 50 µM
- Inhibition of cell migration, 24 h (PANC1 cells; PANC1, 24 h post wounding): +
- Inhibition of cell migration, 48 h (PANC1 cells; PANC1, 48 h post wounding): −
- Effect on PANC1 cell migration (PANC1 cells; compared to diluent-treated control cells): partial effect
